The values that follow come from US8592629B2, “Sulfonamide derivatives as Nav 1.7 inhibitors” (Pfizer Limited, priority 2010, dated 2013).

For the test, the target named is T1, Nav1.7 (or SCN9A) channel (Homo sapiens, UniProt Q15858).
T1 construct: expressed in transfected cells
T1 sequence (Q15858 whole entry): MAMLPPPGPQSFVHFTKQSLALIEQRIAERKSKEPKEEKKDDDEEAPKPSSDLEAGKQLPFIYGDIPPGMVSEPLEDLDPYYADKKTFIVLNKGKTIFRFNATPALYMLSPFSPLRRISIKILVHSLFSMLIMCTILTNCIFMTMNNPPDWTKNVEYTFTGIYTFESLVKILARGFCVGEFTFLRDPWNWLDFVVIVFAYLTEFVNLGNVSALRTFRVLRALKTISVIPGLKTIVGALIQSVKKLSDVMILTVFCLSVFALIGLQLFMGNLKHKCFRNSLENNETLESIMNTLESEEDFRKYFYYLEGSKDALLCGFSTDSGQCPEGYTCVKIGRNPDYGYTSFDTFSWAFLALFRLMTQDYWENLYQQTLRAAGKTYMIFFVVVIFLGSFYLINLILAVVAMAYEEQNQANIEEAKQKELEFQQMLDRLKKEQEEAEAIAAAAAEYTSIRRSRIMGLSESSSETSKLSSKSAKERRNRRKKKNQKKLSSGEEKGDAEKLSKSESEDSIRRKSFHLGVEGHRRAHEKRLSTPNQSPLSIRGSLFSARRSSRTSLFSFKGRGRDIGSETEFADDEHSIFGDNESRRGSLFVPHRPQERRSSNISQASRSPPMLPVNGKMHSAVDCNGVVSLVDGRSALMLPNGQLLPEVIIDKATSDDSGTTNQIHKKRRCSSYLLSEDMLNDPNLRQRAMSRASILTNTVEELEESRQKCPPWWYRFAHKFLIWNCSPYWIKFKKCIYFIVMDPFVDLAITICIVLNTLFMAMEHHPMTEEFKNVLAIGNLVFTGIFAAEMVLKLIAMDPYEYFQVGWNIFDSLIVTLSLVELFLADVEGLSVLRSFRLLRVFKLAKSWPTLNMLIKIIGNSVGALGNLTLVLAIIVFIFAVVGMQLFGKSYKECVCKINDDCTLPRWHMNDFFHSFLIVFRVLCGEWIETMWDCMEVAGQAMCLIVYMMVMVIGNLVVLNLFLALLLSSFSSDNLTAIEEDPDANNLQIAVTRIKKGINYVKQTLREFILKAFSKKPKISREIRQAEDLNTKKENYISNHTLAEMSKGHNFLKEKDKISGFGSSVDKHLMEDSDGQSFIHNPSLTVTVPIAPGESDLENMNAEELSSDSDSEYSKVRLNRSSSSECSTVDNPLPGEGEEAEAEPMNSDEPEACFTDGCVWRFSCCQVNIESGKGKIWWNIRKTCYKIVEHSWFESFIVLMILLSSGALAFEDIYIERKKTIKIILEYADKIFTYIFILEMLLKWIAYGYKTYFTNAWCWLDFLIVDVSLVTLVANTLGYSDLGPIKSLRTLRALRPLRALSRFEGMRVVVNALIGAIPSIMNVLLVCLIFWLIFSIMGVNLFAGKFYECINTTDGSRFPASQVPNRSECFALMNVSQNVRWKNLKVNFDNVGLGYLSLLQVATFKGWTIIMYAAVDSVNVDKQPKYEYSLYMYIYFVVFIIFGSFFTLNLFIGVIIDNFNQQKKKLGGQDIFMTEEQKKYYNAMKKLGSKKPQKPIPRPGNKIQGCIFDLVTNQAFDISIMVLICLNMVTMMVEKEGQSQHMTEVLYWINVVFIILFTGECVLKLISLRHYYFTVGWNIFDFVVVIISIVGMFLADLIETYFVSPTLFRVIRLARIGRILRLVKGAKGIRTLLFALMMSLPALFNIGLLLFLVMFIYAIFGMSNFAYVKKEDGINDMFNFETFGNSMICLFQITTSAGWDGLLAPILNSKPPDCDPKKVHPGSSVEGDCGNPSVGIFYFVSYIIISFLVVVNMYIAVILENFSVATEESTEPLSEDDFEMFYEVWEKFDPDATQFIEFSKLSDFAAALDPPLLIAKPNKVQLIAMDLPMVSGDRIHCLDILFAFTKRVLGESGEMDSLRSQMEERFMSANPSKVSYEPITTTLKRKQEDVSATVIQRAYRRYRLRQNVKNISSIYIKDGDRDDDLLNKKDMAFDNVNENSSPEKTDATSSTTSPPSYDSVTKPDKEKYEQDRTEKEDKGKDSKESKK
The experiment in a line: Nav1.7 (hSCN9A) block in HEK cells, PatchXpress 7000 automated electrophysiology, estimated IC50 (EIC50). It counts as cell-based. As to conditions: PatchXpress assay; HEK cells stably transfected with hSCN9A, voltage-clamped at V1/2 of inactivation. In short, it runs like this: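 Stable hSCN9A HEK cells voltage-clamped at empirically determined inactivation V1/2 (8 s prepulse), current activated by 20 msec step to 0 mV; % inhibition from current before vs after compound. EIC50 derived from single-point data as concentration × (100−%inhibition)/%inhibition, excluding <20% and >80% inhibition; PatchXpress unless stated.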
In general, IC50 refers to the concentration needed to halve the response being measured. As to `CC(C)N(C)c1ncc(Oc2cc(F)c(C(=O)NS(C)(=O)=O)cc2F)cc1Cl` [Example 114, 4-({5-chloro-6-[isopropyl(methyl)amino]pyridin-3-yl}oxy)-2,5-difluoro-N-(methylsulfonyl)benzamide], the IC50 is 210 nM.

Turning to `CC(C)Oc1ncc(Oc2c(F)cc(C(=O)NS(C)(=O)=O)cc2F)cc1Cl` [Example 32, 4-[(5-chloro-6-isopropoxypyridin-3-yl)oxy]-3,5-difluoro-N-(methylsulfonyl)benzamide], the IC50 is 340 nM.

Consider `CS(=O)(=O)NC(=O)c1cc(F)c(Oc2cnc(OCC(F)(F)C(F)(F)F)c(Cl)c2)cc1F` [Example 64, 4-{[5-chloro-6-(2,2,3,3,3-pentafluoropropoxy)pyridin-3-yl]oxy}-2,5-difluoro-N-(methylsulfonyl)benzamide], for which the IC50 was 28 nM.

Regarding `CC(C)Oc1ncc(Oc2cc(F)c(C(=O)NS(C)(=O)=O)cc2Cl)cn1` [Example 61, 5-chloro-2-fluoro-4-[(2-isopropoxypyrimidin-5-yl)oxy]-N-(methylsulfonyl)benzamide], the half-inhibitory concentration (IC50) was 5500 nM.

In the case of `CC(C)(C)Oc1ncc(Oc2cc(F)c(C(=O)NS(C)(=O)=O)cc2Cl)cc1Cl` [Example 101, 4-[(6-tert-butoxy-5-chloropyridin-3-yl)oxy]-5-chloro-2-fluoro-N-(methylsulfonyl)benzamide], the concentration for half-maximal inhibition (IC50) is 34 nM.

With `CS(=O)(=O)NC(=O)c1cc(F)c(Oc2cnc(OCCC(F)(F)F)c(Cl)c2)cc1F` [Example 62, 4-{[5-chloro-6-(3,3,3-trifluoropropoxy)pyridin-3-yl]oxy}-2,5-difluoro-N-(methylsulfonyl)benzamide], the concentration for half-maximal inhibition (IC50) is 240 nM.

For `CC(C)Oc1ncc(Oc2ccc(C(=O)NS(C)(=O)=O)cc2Cl)cc1Cl` [Example 82, 3-chloro-4-[(5-chloro-6-isopropoxypyridin-3-yl)oxy]-N-(methylsulfonyl)benzamide], the IC50 was 42 nM.

`CC(C)Oc1ncc(Oc2cc(F)c(C(=O)NS(C)(=O)=O)c(F)c2F)cc1Cl` [Example 29, 4-[(5-chloro-6-isopropoxypyridin-3-yl)oxy]-2,3,6-trifluoro-N-(methylsulfonyl)benzamide]: the half-inhibitory concentration (IC50) is 2300 nM.

As for `CCC(COC)Nc1ncc(Oc2cc(F)c(C(=O)NS(C)(=O)=O)cc2F)cc1Cl` (centres unmarked) [Example 129, 4-[(5-chloro-6-{[1-(methoxymethyl)propyl]amino}pyridin-3-yl)oxy]-2,5-difluoro-N-(methylsulfonyl)benzamide], the half-inhibitory concentration (IC50) is 540 nM.

On to `CC(C)(O)c1ncc(Oc2cc(F)c(C(=O)NS(C)(=O)=O)cc2Cl)cc1Cl` [Example 48, 5-chloro-4-{[5-chloro-6-(1-hydroxy-1-methylethyl)pyridin-3-yl]oxy}-2-fluoro-N-(methylsulfonyl)benzamide], for which the IC50 is 3500 nM.

Regarding `CN(CC1CC1)c1ncc(Oc2cc(F)c(C(=O)NS(C)(=O)=O)cc2F)cc1Cl` [Example 141, 4-({5-chloro-6-[(cyclopropylmethyl)(methyl)amino]pyridin-3-yl}oxy)-2,5-difluoro-N-(methylsulfonyl)benzamide], the IC50 is 270 nM.

Consider `CC(C)Oc1ncc(Oc2cc(F)c(C(=O)NS(C)(=O)=O)cc2F)cc1Cl` [Example 3, 4-[(5-Chloro-6-isopropoxypyridin-3-yl)oxy]-2,5-difluoro-N-(methylsulfonyl)benzamide], for which the half-inhibitory concentration (IC50) is 41 nM.

Turning to `CN1CCC(Oc2ncc(Oc3cc(F)c(C(=O)NS(C)(=O)=O)cc3F)cc2Cl)CC1` [Example 67, 4-({5-chloro-6-[(1-methylpiperidin-4-yl)oxy]pyridin-3-yl}oxy)-2,5-difluoro-N-(methylsulfonyl)benzamide], the half-inhibitory concentration (IC50) is 9900 nM.

On to `CS(=O)(=O)NC(=O)c1cc(F)c(Oc2cnc(OCC(F)(F)C(F)F)c(Cl)c2)cc1F` [Example 45, 4-{[5-chloro-6-(2,2,3,3-tetrafluoropropoxy)pyridin-3-yl]oxy}-2,5-difluoro-N-(methylsulfonyl)benzamide], for which the concentration for half-maximal inhibition (IC50) is 110 nM.

For the molecule `CS(=O)(=O)NC(=O)c1cc(Cl)c(Oc2cnc(OC3COC3)c(Cl)c2)cc1F` [Example 10, 5-Chloro-4-{[5-chloro-6-(oxetan-3-yloxy)pyridin-3-yl]oxy}-2-fluoro-N-(methylsulfonyl)benzamide], the half-maximal inhibitory concentration (IC50) was 900 nM.

Regarding `CS(=O)(=O)NC(=O)c1cc(F)c(Oc2cnc(NCC3CCC3)c(Cl)c2)cc1F` [Example 115, 4-({5-chloro-6-[(cyclobutylmethyl)amino]pyridin-3-yl}oxy)-2,5-difluoro-N-(methylsulfonyl)benzamide], the IC50 is 54 nM.

As to `CS(=O)(=O)NC(=O)c1cc(F)c(Oc2cnc(N3CCCC3)c(Cl)c2)cc1F` [Example 146, 4-[(5-chloro-6-pyrrolidin-1-ylpyridin-3-yl)oxy]-2,5-difluoro-N-(methylsulfonyl)benzamide], the IC50 was 76 nM.

Consider `CC(C)(F)c1ncc(Oc2cc(F)c(C(=O)NS(C)(=O)=O)cc2Cl)cc1Cl` [Example 7, 5-Chloro-4-{[5-chloro-6-(1-fluoro-1-methylethyl)pyridin-3-yl]oxy}-2-fluoro-N-(methylsulfonyl)benzamide], for which the half-maximal inhibitory concentration (IC50) is 290 nM.

Consider `CCN(C)c1ncc(Oc2cc(F)c(C(=O)NS(C)(=O)=O)cc2F)cc1Cl` [Example 117, 4-({5-chloro-6-[ethyl(methyl)amino]pyridin-3-yl}oxy)-2,5-difluoro-N-(methylsulfonyl)benzamide], for which the half-maximal inhibitory concentration (IC50) is 900 nM.

As to `CS(=O)(=O)NC(=O)c1cc(Cl)c(Oc2cnc(C3CC3)c(C(F)(F)F)c2)cc1F` [Example 107, 5-chloro-4-(6-cyclopropyl-5-(trifluoromethyl)pyridin-3-yloxy)-2-fluoro-N-(methylsulfonyl)benzamide], the IC50 was 49 nM.

With `CC(C)CN(C)c1ncc(Oc2cc(F)c(C(=O)NS(C)(=O)=O)cc2F)cc1Cl` [Example 135, 4-({5-chloro-6-[isobutyl(methyl)amino]pyridin-3-yl}oxy)-2,5-difluoro-N-(methylsulfonyl)benzamide], the half-maximal inhibitory concentration (IC50) was 140 nM.

Regarding `CS(=O)(=O)NC(=O)c1cc(Cl)c(Oc2cnc(OC3CCOCC3)c(Cl)c2)cc1F` [Example 37, 5-chloro-4-{[5-chloro-6-(tetrahydro-2H-pyran-4-yloxy)pyridin-3-yl]oxy}-2-fluoro-N-(methylsulfonyl)benzamide], the IC50 is 140 nM.

As to `CS(=O)(=O)NC(=O)c1cc(Cl)c(Oc2cnc(N3CC(F)(F)C3)c(Cl)c2)cc1F` [Example 96, 5-Chloro-4-(5-chloro-6-(3,3-difluoroazetidin-1-yl)pyridin-3-yloxy)-2-fluoro-N-(methylsulfonyl)benzamide], the 50% inhibitory concentration (IC50) was 73 nM.

For `COC1(C)CN(c2ncc(Oc3cc(F)c(C(=O)NS(C)(=O)=O)cc3F)cc2Cl)C1` [Example 125, 4-{[5-chloro-6-(3-methoxy-3-methylazetidin-1-yl)pyridin-3-yl]oxy}-2,5-difluoro-N-(methylsulfonyl)benzamide], the 50% inhibitory concentration (IC50) was 960 nM.

In the case of `CS(=O)(=O)NC(=O)c1cc(Cl)c(Oc2cnc(C3CCC3)c(Cl)c2)cc1F` [Example 112, 5-chloro-4-(5-chloro-6-cyclobutylpyridin-3-yloxy)-2-fluoro-N-(methylsulfonyl)benzamide], the IC50 was 19 nM.

As to `COc1cc(Oc2cnc(OC(C)C)c(Cl)c2)ccc1C(=O)NS(C)(=O)=O` [Example 86, 4-[(5-chloro-6-isopropoxypyridin-3-yl)oxy]-2-methoxy-N-(methylsulfonyl)benzamide], the IC50 is 7200 nM.

For `CS(=O)(=O)NC(=O)c1cc(F)c(Oc2cnc(NC3CC3)c(Cl)c2)cc1F` [Example 140, 4-{[5-chloro-6-(cyclopropylamino)pyridin-3-yl]oxy}-2,5-difluoro-N-(methylsulfonyl)benzamide], the 50% inhibitory concentration (IC50) was 1600 nM.

As to `CS(=O)(=O)NC(=O)c1cc(Cl)c(Oc2cnc(C3CC3)c(Cl)c2)cc1Cl` [Example 91, 2,5-Dichloro-4-(5-chloro-6-cyclopropylpyridin-3-yloxy)-N-(methylsulfonyl)benzamide], the IC50 was 680 nM.

As to `CS(=O)(=O)NC(=O)c1cc(F)c(Oc2cnc(OCC(F)F)c(Cl)c2)cc1F` [Example 66, 4-{[5-chloro-6-(2,2-difluoroethoxy)pyridin-3-yl]oxy}-2,5-difluoro-N-(methylsulfonyl)benzamide], the IC50 is 650 nM.

Turning to `CS(=O)(=O)NC(=O)c1cc(Cl)c(Cc2cnc(C3CC3)c(Cl)c2)cc1F` [Example 93, 5-chloro-4-((5-chloro-6-cyclopropylpyridin-3-yl)methyl)-2-fluoro-N-(methylsulfonyl)benzamide], the IC50 was 470 nM.

Take `Cc1nc2ccccc2nc1Oc1cc(F)c(C(=O)NS(C)(=O)=O)cc1F` [Example 187, 2,5-difluoro-4-[(3-methylquinoxalin-2-yl)oxy]-N-(methylsulfonyl)benzamide]: the IC50 is > 3000 nM.

`CCN1CCN(c2ncc(Oc3cc(F)c(C(=O)NS(C)(=O)=O)cc3F)cc2Cl)CC1` [Example 118, 4-{[5-chloro-6-(4-ethylpiperazin-1-yl)pyridin-3-yl]oxy}-2,5-difluoro-N-(methylsulfonyl)benzamide]: the IC50 was > 1000 nM.

For `[2H]C([2H])([2H])C([2H])(Oc1ncc(Oc2cc(F)c(C(=O)NS(C)(=O)=O)cc2F)cc1Cl)C([2H])([2H])[2H]` [Example 40, -({5-chloro-6-[d7-propan-2-yloxy]pyridin-3-yl}oxy)-2,5-difluoro-N-(methylsulfonyl)benzamide], the IC50 was 130 nM.

In the case of `CC(C)COc1ncc(Oc2cc(F)c(C(=O)NS(C)(=O)=O)cc2Cl)cc1Cl` [Example 38, 5-chloro-4-[(5-chloro-6-isobutoxypyridin-3-yl)oxy]-2-fluoro-N-(methylsulfonyl)benzamide], the IC50 was 7.5 nM.

With `CS(=O)(=O)NC(=O)c1cc(Cl)c(Oc2cnc(C3CC3)c(C3CC3)c2)cc1F` [Example 113, 5-chloro-4-[(5,6-dicyclopropylpyridin-3-yl)oxy]-2-fluoro-N-(methylsulfonyl)benzamide], the concentration for half-maximal inhibition (IC50) was 53 nM.
